Tested on: mammals and certain species of fish
Assay: Mammalian toxicology and fish toxicity, summary of the tests
Type: in vivo, rat; fish
Conditions: at rates giving commercial control of target crop insects
Method: In the 90-day feeding study, conducted in compliance with EPA guideline 82-1, the compound under test was administered continuously in the diet to groups of rats for at least ninety days at concentrations of 0, 150, and 1500 ppm to groups of fifteen Sprague-Dawley rats for cypermethrin and 0, 10, 50, 150, 250, 500, and 900 ppm to groups of ten Fisher 344 rats for sigma-cypermethrin. (The rates for sigma-cypermethrin were lower, because it was expected to be more toxic than cypermethrin.) The cypermethrin isomer content (weight %) of the sigma-cypermethrin technical product used in this study was total isomers--88.2%, S-isomers--82%, cis/trans ratio--53/47. Individual body weight and food consumption values were recorded weekly. At termination, hematology and clinical chemistry determinations were conducted and organ weights were obtained for adrenals, brain, heart, kidneys, liver, and ovaries or testes. […]
Multigeneration studies were conducted in compliance with EPA guideline 83-4 and provide information on reproductive parameters as well as neonatal morbidity and mortality for multiple generations. […] Body weights and food consumption were recorded at regular intervals. […]

CC1(C)C(C=C(Cl)Cl)C1C(=O)O[C@H](C#N)c1cccc(Oc2ccccc2)c1 (mixture of isomers) [sigma-cypermethrin, (S)(cyano)(3-phenoxyphenyl)methyl cis/trans-3-(2,2-dichloroethenyl)-2,2-dimethylcyclopropanecarboxylate]
toxicity relative to cypermethrin: significantly less toxic to mammals and certain species of fish
